Assay results reported in US5849729A, “Use of hydrolyzed cocoa butter for percutaneous absorption” (Hershey Foods Corporation, priority 1995, dated 1998).
Several values for one entry are separate records, joined by “and”; a condition that tells them apart may be missing. Identical values can stand only once.

Test: In-vitro percutaneous absorption of retinoic acid and triamcinolone acetonide from two cocoa butter vehicles (Franz cells, 48 h)
Details: for % Abs (% Absorbed) / % Absorbed / total absorption: percent of applied dose
Excerpt: The objective of this study was to measure the permeation of retinoic acid and triamcinolone acetonide through human skin in-vitro from two cocoa butter vehicles.
Two cocoa butter vehicles supplied by Hershey Foods Corporation were utilized: (1) pure cocoa butter and (2) partially hydrolyzed cocoa butter emulsion. Radioactive [11,12-^3 H] [retinoic acid (NET 920, Lot 2930-067, specific activity 1 mCi/ml) and [6,7-^3 H]-triamcinolone acetonide (NET 470, Lot 2904-170, specific activity 1 mCi/ml) were obtained from Dupont-New England Nuclear Corporation, Boston, Mass.
Each of the two cocoa butter vehicles was spiked separately with ^3 H-retinoic acid and ^3 H-Triamcinolone acetonide to give a total of four radioactive formulations for study. This was done by adding 25 μl (containing 25 μCi) of each tracer solution to approximately 1 gram of each vehicle and mixing with the tip of the dispensing micropipette. The pure cocoa butter vehicle was liquified by holding it under warm tap water prior to spiking. This was not done with the partially hydrolyzed cocoa butter emulsion. Neither formulation was used for three days after spiking to allow for diffusional mixing to take place. Final radioactive concentrations of each formulation were: […]
Human trunk skin without obvious signs of disease was used throughout. It was obtained within 24 hours of death, dermatomed to a thickness of approximately 0.25 mm, cryopreserved and sealed in water vapor-impermeableplastic bags. It was stored at -70° C. until the day of use then thawed by placing the bag in 37° C. water.
Skin from a single donor was cut into multiple sections large enough to fit on 0.8 cm^2 Franz cells. The dermal chamber was filled with isotonic saline, pH 7.4, into which a small magnetic stirring bar was placed. The epidermal chamber was left open to the ambient laboratory environment, approximately 22° C. and 40-60% RH. The cells were placed in a diffusion apparatus in which the dermal receptor solution was stirred magnetically at 600 RPM and its temperature maintained at 37° C.
To assure the integrity of each skin section, its permeability to tritiated water was determined before application of the test formulations. Following a brief (0.5-1 hour) equilibration period, 150 μl ^3 H2 O (specific activity 0.3 μCi/ml) was layered across the top of the skin section so that the entire exposed surface was covered. After 5 minutes the aqueous layer was removed and the surface of the skin carefully blotted dry. At t=0.5 hour the saline receptor phase was removed and analyzed for radioactive content by liquid scintillation counting. Skin specimens in which absorption of ^3 H2 O was less than 1.25 μl were considered acceptable.
Subsequently, each test formulation was applied at a target dose of 10 mg (cream) or 10 μl (butter). The cream formulation (partially hydrolyzed cocoa butter emulsion) was applied from the smooth, rounded-tip of a glass rod, the exact amount determined by weighing the rod before and after application. The butter formulation (pure cocoa butter) was first liquified under warm tap water, allowed to cool to room temperature, then applied with a 10 μl positive displacement micropipette prior to resolidifying. At 4, 8, 12, 24, 36 and 48 hours the receptor solution was removed in its entirety, replaced with fresh solution, and a 1 ml aliquot taken and assayed for radioactive content by liquid scintillation counting.
A 1 ml aliquot of each receptor sample containing ^3 H2 O, ^3 H-retinoic acid, or ^3 H-triamcinolone acetonide was placed in a 7 ml glass scintillation vial and gelled by the addition of 5 ml Opti-Fluor (Packard Instrument Co., Meriden, Conn.). These were counted in a Packard Tri-Carb Model 1900CA Liquid scintillation Analyzer equipped with internal standard and automatic quench correction.

[1] = cream (partially hydrolyzed cocoa butter emulsion), 48 h, individual skin sections
[2] = cream, 48 h, average of three donors
[3] = cream, 48 h, average per skin donor (n=4), listed as RETINOIC ACID
[4] = cream, 48 h, average per skin donor (n=4), listed as Retinoic Acid

Compound: CC1=C(/C=C/C(C)=C/C=C/C(C)=C/C(=O)O)C(C)(C)CCC1 [retinoic acid]
- % Abs (% Absorbed) (butter, 48 h, average per skin donor (n=4), listed as Retinoic Acid): 13.67% and 18.02% and 16.97%
- Penet (Total Penetration) [1]: 824.73 and 721.36 and 745.68 and 808.17 and 1027.61 and 945.49 and 550.30 and 524.77 and 919.75 and 670.20 and 859.80 and 1068.35
- % Abs (% Absorbed) [1]: 14.03% and 14.76% and 13.59% and 17.11% and 17.20% and 15.81% and 13.56% and 15.67% and 21.00% and 18.37% and 18.57% and 20.67%
- Rate of absorption, R1 (cream (partially hydrolyzed cocoa butter emulsion), sample R1, mid-t 2 h, individual skin sections): 40.91 ng/cm^2 /hr and 36.94 ng/cm^2 /hr and 38.12 ng/cm^2 /hr and 45.28 ng/cm^2 /hr and 74.50 ng/cm^2 /hr and 68.54 ng/cm^2 /hr and 46.23 ng/cm^2 /hr and 49.65 ng/cm^2 /hr and 16.18 ng/cm^2 /hr and 50.09 ng/cm^2 /hr and 69.86 ng/cm^2 /hr and 77.41 ng/cm^2 /hr
- Rate of absorption, R3 (cream (partially hydrolyzed cocoa butter emulsion), sample R3, mid-t 10 h, individual skin sections): 23.20 ng/cm^2 /hr and 19.99 ng/cm^2 /hr and 20.80 ng/cm^2 /hr and 24.15 ng/cm^2 /hr and 28.97 ng/cm^2 /hr and 25.18 ng/cm^2 /hr and 16.74 ng/cm^2 /hr and 15.77 ng/cm^2 /hr and 27.41 ng/cm^2 /hr and 19.26 ng/cm^2 /hr and 26.16 ng/cm^2 /hr and 30.74 ng/cm^2 /hr
- Rate of absorption, R4 (cream (partially hydrolyzed cocoa butter emulsion), sample R4, mid-t 18 h, individual skin sections): 17.83 ng/cm^2 /hr and 16.44 ng/cm^2 /hr and 14.68 ng/cm^2 /hr and 15.42 ng/cm^2 /hr and 27.53 ng/cm^2 /hr and 24.05 ng/cm^2 /hr and 12.20 ng/cm^2 /hr and 11.56 ng/cm^2 /hr and 26.23 ng/cm^2 /hr and 18.49 ng/cm^2 /hr and 25.34 ng/cm^2 /hr and 30.20 ng/cm^2 /hr
- Rate of absorption, R5 (cream (partially hydrolyzed cocoa butter emulsion), sample R5, mid-t 30 h, individual skin sections): 14.89 ng/cm^2 /hr and 15.68 ng/cm^2 /hr and 17.30 ng/cm^2 /hr and 17.77 ng/cm^2 /hr and 15.95 ng/cm^2 /hr and 14.81 ng/cm^2 /hr and 8.32 ng/cm^2 /hr and 7.95 ng/cm^2 /hr and 15.24 ng/cm^2 /hr and 11.88 ng/cm^2 /hr and 12.50 ng/cm^2 /hr and 19.16 ng/cm^2 /hr
- Rate of absorption, R6 (cream (partially hydrolyzed cocoa butter emulsion), sample R6, mid-t 42 h, individual skin sections): 20.33 ng/cm^2 /hr and 14.24 ng/cm^2 /hr and 14.46 ng/cm^2 /hr and 17.62 ng/cm^2 /hr and 16.38 ng/cm^2 /hr and 15.16 ng/cm^2 /hr and 8.78 ng/cm^2 /hr and 7.68 ng/cm^2 /hr and 13.21 ng/cm^2 /hr and 9.49 ng/cm^2 /hr and 10.20 ng/cm^2 /hr and 14.22 ng/cm^2 /hr
- Total Penetration [2]: 805.52
- Penet (Total Penetration) [3]: 774.99 and 762.04 and 879.52
- Penet (Total Penetration) [4]: 879.52 and 762.04 and 774.99
- Rate of absorption, R1 (cream, R1, mid-t 2 h, average of three donors): 55.06 ng/cm^2 /hr
- Rate of absorption, R1 (cream, R1, mid-t 2 h, average per skin donor (n=4), listed as RETINOIC ACID): 40.32 ng/cm^2 /hr and 59.73 ng/cm^2 /hr and 65.14 ng/cm^2 /hr
- Rate of absorption, R1 (cream, R1, mid-t 2 h, average per skin donor (n=4), listed as Retinoic Acid): 65.14 ng/cm^2 /hr and 59.73 ng/cm^2 /hr and 40.32 ng/cm^2 /hr
- Rate of absorption, R3 (cream, R3, mid-t 10 h, average of three donors): 23.20 ng/cm^2 /hr
- Rate of absorption, R3 (cream, R3, mid-t 10 h, average per skin donor (n=4), listed as RETINOIC ACID): 22.04 ng/cm^2 /hr and 21.67 ng/cm^2 /hr and 25.89 ng/cm^2 /hr
- Rate of absorption, R3 (cream, R3, mid-t 10 h, average per skin donor (n=4), listed as Retinoic Acid): 25.89 ng/cm^2 /hr and 21.67 ng/cm^2 /hr and 22.04 ng/cm^2 /hr
- Rate of absorption, R4 (cream, R4, mid-t 18 h, average of three donors): 20.00 ng/cm^2 /hr
- Rate of absorption, R4 (cream, R4, mid-t 18 h, average per skin donor (n=4), listed as RETINOIC ACID): 16.09 ng/cm^2 /hr and 18.83 ng/cm^2 /hr and 25.07 ng/cm^2 /hr
- Rate of absorption, R4 (cream, R4, mid-t 18 h, average per skin donor (n=4), listed as Retinoic Acid): 25.07 ng/cm^2 /hr and 18.83 ng/cm^2 /hr and 16.09 ng/cm^2 /hr
- Rate of absorption, R5 (cream, R5, mid-t 30 h, average of three donors): 14.29 ng/cm^2 /hr
- Rate of absorption, R5 (cream, R5, mid-t 30 h, average per skin donor (n=4), listed as RETINOIC ACID): 16.41 ng/cm^2 /hr and 11.76 ng/cm^2 /hr and 14.70 ng/cm^2 /hr
- Rate of absorption, R5 (cream, R5, mid-t 30 h, average per skin donor (n=4), listed as Retinoic Acid): 14.70 ng/cm^2 /hr and 11.76 ng/cm^2 /hr and 16.41 ng/cm^2 /hr
- Rate of absorption, R6 (cream, R6, mid-t 42 h, average of three donors): 13.47 ng/cm^2 /hr
- Rate of absorption, R6 (cream, R6, mid-t 42 h, average per skin donor (n=4), listed as RETINOIC ACID): 16.62 ng/cm^2 /hr and 12.00 ng/cm^2 /hr and 11.78 ng/cm^2 /hr
- Rate of absorption, R6 (cream, R6, mid-t 42 h, average per skin donor (n=4), listed as Retinoic Acid): 11.78 ng/cm^2 /hr and 12.00 ng/cm^2 /hr and 16.62 ng/cm^2 /hr
- % Absorbed / total absorption [2]: 16.7%
- % Absorbed / total absorption (cream, 48 h, average of three donors, listed as Retinoic Acid): 16.69%
- % Abs (% Absorbed) [3]: 14.87% and 15.56% and 19.65%
- % Abs (% Absorbed) [4]: 19.65% and 15.56% and 14.87%
- difference between partially hydrolyzed cocoa butter emulsion and pure cocoa butter as delivery vehicle (in words): no appreciable difference
- average absorption (with cocoa butter and partially hydrolyzed cocoa butter emulsion (both vehicles)): 16.5%
